Calls of active or inactive are those of the source. The rule behind the calls is not given here.
Legend:
A2780 [1] = experiment: Induction of apoptosis in human A2780 cells assessed as apoptotic cells at 0.115 uM after 24 hrs by Annexin-V-FITC/propidium iodide staining-based flow cytometric analysis (reference value: 2%); format: functional
LoVo [2] = experiment: Induction of DNA fragmentation in human LoVo cells assessed as apoptotic cells at 0.115 uM after 24 hrs by BrdU/FITC staining-based TUNEL assay (reference value: 0.8%); format: functional
MCF7 [3] = experiment: Cytotoxicity against human MCF7 cells after 72 hrs by CCK8 assay; format: functional, cell-based; conditions: MCF7, 72 h
LoVo [4] = experiment: Induction of apoptosis in human LoVo cells assessed as apoptotic cells at 426 uM after 24 hrs by Annexin-V-FITC/propidium iodide staining-based flow cytometric analysis (reference value: 7.9%); format: functional
LoVo [5] = experiment: Induction of apoptosis in human LoVo cells assessed as necrotic cells at 426 uM after 24 hrs by Annexin-V-FITC/propidium iodide staining-based flow cytometric analysis (reference value: 2.9%); format: functional
LoVo [6] = experiment: Induction of apoptosis in human LoVo cells assessed as viable cells at 0.106 uM after 24 hrs by Annexin-V-FITC/propidium iodide staining-based flow cytometric analysis (reference value: 89.7%); format: functional; conditions: read-out: Activity
LoVo [7] = experiment: Induction of DNA fragmentation in human LoVo cells assessed as apoptotic cells at 460.6 uM after 24 hrs by BrdU/FITC staining-based TUNEL assay (reference value: 0.8%); format: functional
LoVo [8] = experiment: Cytotoxicity against human LoVo cells after 72 hrs by CCK8 assay; format: functional, cell-based
A2780 [9] = experiment: Cytotoxicity against human A2780 cells after 72 hrs by CCK8 assay; format: functional, cell-based; conditions: A2780, 72 h
A2780 [10] = experiment: Induction of apoptosis in human A2780 cells assessed as necrotic cells at 460.6 uM after 24 hrs by Annexin-V-FITC/propidium iodide staining-based flow cytometric analysis (reference value: 4.1%); format: functional
A2780 [11] = experiment: Induction of DNA fragmentation in human A2780 cells assessed as apoptotic cells at 0.115 uM after 24 hrs by BrdU/FITC staining-based TUNEL assay (reference value: 3.9%); format: functional
A2780 [12] = experiment: Induction of apoptosis in human A2780 cells assessed as viable cells at 460.6 uM after 24 hrs by Annexin-V-FITC/propidium iodide staining-based flow cytometric analysis (reference value: 93.9%); format: functional; conditions: A2780, 24 h, read-out: Activity
A2780 [13] = experiment: Genotoxicity in human A2780 cells assessed as induction of DNA damage at 500 uM after 1 hr under alkaline condition by comet assay relative to control; format: functional
A2780 [14] = experiment: Induction of apoptosis in human A2780 cells assessed as viable cells at 0.115 uM after 24 hrs by Annexin-V-FITC/propidium iodide staining-based flow cytometric analysis (reference value: 93.9%); format: functional; conditions: A2780, 24 h, read-out: Activity
LoVo [15] = experiment: Induction of apoptosis in human LoVo cells assessed as apoptotic cells at 0.106 uM after 24 hrs by Annexin-V-FITC/propidium iodide staining-based flow cytometric analysis (reference value: 7.9%); format: functional
M059J [16] = experiment: Cytotoxicity against human M059J cells after 72 hrs by CCK8 assay; format: functional, cell-based
LoVo [17] = experiment: Induction of apoptosis in human LoVo cells assessed as viable cells at 426 uM after 24 hrs by Annexin-V-FITC/propidium iodide staining-based flow cytometric analysis (reference value: 89.7%); format: functional; conditions: read-out: Activity
M059J [18] = experiment: Genotoxicity in human M059J cells assessed as induction of DNA damage at 500 uM after 1 hr under alkaline condition by comet assay relative to control; format: functional
LoVo [19] = experiment: Induction of DNA fragmentation in human LoVo cells assessed as viable cells at 0.115 uM after 24 hrs by BrdU/FITC staining-based TUNEL assay (reference value: 99.2%); format: functional; conditions: read-out: Activity
A2780 [20] = experiment: Induction of DNA fragmentation in human A2780 cells assessed as viable cells at 460.6 uM after 24 hrs by BrdU/FITC staining-based TUNEL assay (reference value: 96.1%); format: functional; conditions: A2780, 24 h, read-out: Activity
MCF7 [21] = experiment: Genotoxicity in human MCF7 cells assessed as induction of DNA damage at 500 uM after 1 hr under alkaline condition by comet assay relative to control; format: functional
HeLa [22] = experiment: Genotoxicity in human HeLa cells assessed as induction of DNA damage at 500 uM after 1 hr under alkaline condition by comet assay relative to control; format: functional
A2780 [23] = experiment: Induction of oxidative stress in human A2780 cells assessed as increase in ROS level in cytoplasm at IC50 after 1 hr by H2DCF-DA probe based fluorescence assay; format: functional, cell-based
A2780 [24] = experiment: Induction of DNA fragmentation in human A2780 cells assessed as apoptotic cells at 460.6 uM after 24 hrs by BrdU/FITC staining-based TUNEL assay (reference value: 3.9%); format: functional
LoVo [25] = experiment: Genotoxicity in human LoVo cells assessed as induction of DNA damage at 500 uM after 1 hr under alkaline condition by comet assay relative to control; format: functional
LoVo [26] = experiment: Induction of DNA fragmentation in human LoVo cells assessed as viable cells at 460.6 uM after 24 hrs by BrdU/FITC staining-based TUNEL assay (reference value: 99.2%); format: functional; conditions: read-out: Activity
A2780 [27] = experiment: Induction of DNA fragmentation in human A2780 cells assessed as viable cells at 0.115 uM after 24 hrs by BrdU/FITC staining-based TUNEL assay (reference value: 96.1%); format: functional; conditions: A2780, 24 h, read-out: Activity
HeLa [28] = experiment: Cytotoxicity against human HeLa cells after 72 hrs by CCK8 assay; format: functional, cell-based
A2780 [29] = experiment: Induction of oxidative stress in human A2780 cells assessed as increase in ROS level in cytoplasm at IC20 after 1 hr by H2DCF-DA probe based fluorescence assay; format: functional, cell-based
LoVo [30] = experiment: Induction of apoptosis in human LoVo cells assessed as necrotic cells at 0.106 uM after 24 hrs by Annexin-V-FITC/propidium iodide staining-based flow cytometric analysis (reference value: 2.9%); format: functional
A2780 [31] = experiment: Induction of apoptosis in human A2780 cells assessed as necrotic cells at 0.115 uM after 24 hrs by Annexin-V-FITC/propidium iodide staining-based flow cytometric analysis (reference value: 4.1%); format: functional
A2780 [32] = experiment: Induction of apoptosis in human A2780 cells assessed as apoptotic cells at 460.6 uM after 24 hrs by Annexin-V-FITC/propidium iodide staining-based flow cytometric analysis (reference value: 2%); format: functional

Structure (SMILES): CC(=O)OC[C@H]1O[C@@H](O[C@H]2[C@H](OC(C)=O)[C@@H](OC(C)=O)[C@H](S[C@@H]3CC(=O)[C@@H]4OC[C@H]3O4)O[C@@H]2COC(C)=O)[C@H](OC(C)=O)[C@@H](OC(C)=O)[C@H]1OC(C)=O
- Activity (A2780 [1]): 7%
- Activity (LoVo [2]): 6.3%
- IC50 (MCF7 [3]): 913 µM
- Activity (LoVo [4]): 16.3%
- Activity (LoVo [5]): 12.6%
- viability at 0.106 µM (LoVo [6]): 82%
- Activity (LoVo [7]): 9.4%
- IC20 (LoVo [8]): 106 µM
- IC50 (LoVo [8]): 426 µM
- IC20 (A2780 [9]): 115 nM
- IC50 (A2780 [9]): 461 µM
- Activity (A2780 [10]): 5.7%
- Activity (A2780 [11]): 15.5%
- viability at 460.6 µM (A2780 [12]): 71.4%
- Activity (A2780 [13]): <10%
- viability at 0.115 µM (A2780 [14]): 91.6%
- Activity (LoVo [15]): 12.5%
- IC50 (M059J [16]): 827 µM
- viability at 426 µM (LoVo [17]): 71.2%
- Activity (M059J [18]): <10%
- viability at 0.115 µM (LoVo [19]): 96.7%
- viability at 460.6 µM (A2780 [20]): 59%
- Activity (MCF7 [21]): <10%
- Activity (HeLa [22]): <10%
- Activity (A2780 [23]): inactive
- Activity (A2780 [24]): 41%
- Activity (LoVo [25]): 10 - 20%
- viability at 460.6 µM (LoVo [26]): 90.6%
- viability at 0.115 µM (A2780 [27]): 85.5%
- IC50 (HeLa [28]): 875 µM
- Activity (A2780 [29]): inactive
- Activity (LoVo [30]): 5.5%
- Activity (A2780 [31]): 1.4%
- Activity (A2780 [32]): 22.9%

— ChEMBL document CHEMBL4020779, “Thio-functionalized carbohydrate thiosemicarbazones and evaluation of their anticancer activity” (Bioorg Med Chem Lett, 2017)
